Here are results for 2 molecules from paper doi:10.1101/2025.07.11.664310v1 (biorxiv, 2025).

In one experiment the target is hOGG1 (Homo sapiens, UniProt O15527). The experiment in a line: Cas12a-coupled fluorescence assay, 8-oxoG DNA hairpin transducer. Type of experiment: biochemical.
In the next experiment the target is T1, Fpg (Escherichia coli, UniProt P05523).
T1 sequence (P05523 2-269): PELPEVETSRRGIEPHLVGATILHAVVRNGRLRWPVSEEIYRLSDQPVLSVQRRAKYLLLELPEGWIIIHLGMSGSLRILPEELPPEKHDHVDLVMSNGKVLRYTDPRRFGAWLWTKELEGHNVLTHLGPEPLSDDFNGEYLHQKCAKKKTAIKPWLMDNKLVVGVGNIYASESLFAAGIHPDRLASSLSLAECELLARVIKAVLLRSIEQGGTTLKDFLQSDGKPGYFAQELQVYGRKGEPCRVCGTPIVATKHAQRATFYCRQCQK
The description is as above. Type of experiment: biochemical.

hOGG1, sequence (O15527 whole entry): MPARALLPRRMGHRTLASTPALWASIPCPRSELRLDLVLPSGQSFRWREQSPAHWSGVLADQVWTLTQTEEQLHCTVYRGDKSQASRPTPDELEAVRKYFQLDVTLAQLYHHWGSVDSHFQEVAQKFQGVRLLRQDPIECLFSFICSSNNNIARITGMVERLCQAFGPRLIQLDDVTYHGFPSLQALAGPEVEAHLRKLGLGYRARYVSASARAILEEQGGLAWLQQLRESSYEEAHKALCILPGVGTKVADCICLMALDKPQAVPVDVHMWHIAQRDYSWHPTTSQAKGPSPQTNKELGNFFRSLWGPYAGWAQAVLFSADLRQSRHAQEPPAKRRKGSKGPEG

`NNC(=O)c1sc2cccc(Cl)c2c1Cl` [Inh#1, O8]: the IC50 against hOGG1 came to 2.5 ± 0.5 µM.

As for `O=c1[nH]c2[nH]c(=S)[nH]c(=O)c2[nH]1` [Inh#4, Mercapto-6,8-purinediol], the results for the IC50 at hOGG1 and against Fpg were 11.9 ± 0.4 µM and 70.3 ± 0.7 µM, respectively.

As usually defined, the IC50 is the midpoint of a concentration-inhibition curve. A high value points to weaker potency.
